Data: patent US7744860B2, “Reduced bioirritant composition” (Minu LLC, priority 1999, dated 2010)
Values joined by “and” are separate entries in the source; they are usually repeats but may differ in a detail not shown here. Equal entries are not always repeated. “Also recorded” adds a separate entry of the source.

What was measured:
[1] = test system: corneal neovascularization; test: silver nitrate cauterization induced corneal neovascularization, topical treatment; assay type: in vivo, male Long Evans pigmented rats; conditions: for Degree of Corneal Neovascularization, OD / Degree of Corneal Neovascularization, OS / mean inhibition of neovascularization / mean percent of neovascularization relative to total corneal area: topical twice a day for seven days; for Degree of Corneal Neovascularization, OD / Degree of Corneal Neovascularization, OS: individual subjects
Procedure: Neovascularization was induced in all eyes using silver nitrate cauterization. The animals were first anesthetized by intraperitoneal injection of a mixture of ketamine hydrochloride (25 mg/kg) with xylazine hydrochloride (5 mg/kg). The cornea was then anesthetized by a drop of 0.5% proparacaine hydrochloride and allowed to dry. One cornea of each animal was cauterized by pressing an applicator stick (diameter of 1.8 mm) coated with 75% silver nitrate/25% potassium nitrate (Arzol Chemical Co., Keen, N.H.) to the central cornea for ten seconds (using a stopwatch) under the operating microscope. Excess silver nitrate was removed by rinsing the eyes with 5 ml balanced salt solution. To increase the reproducibility of the injuries, one investigator cauterized all animals. Following cauterization, the animals were randomly divided into six groups to eliminate any potential bias in the degree of burns within the different groups. Two drops of each drug were applied topically to each cornea immediately following cauterization; treatments were administered two times per day for seven days.
Group 1 (number of animals (n)=8) received 100 mg/ml pH non-neutralized ascorbic acid. All remaining experimental groups received ascorbic acid neutralized to about pH 7 as previously described in the following concentrations: Group 2 (n=8) received 100 mg/ml (10%^w/v) neutralized ascorbic acid; Group 3 (n=8) received 50 mg/ml (5%^w/v) neutralized ascorbic acid; Group 4 (n=8) received 10 mg/ml (1%^w/v) neutralized ascorbic acid; Group 5 (n=8) received 5 mg/ml neutralized ascorbic acid (0.5%^w/v); Group 6 (n=8) received 1 mg/ml neutralized ascorbic acid (0.1%^w/v); Group 7 (n=8) received 500 μg/ml neutralized ascorbic acid (0.05%^w/v); Group 8 (n=8) received 250 μg/ml neutralized ascorbic acid (0.025%^w/v). Group 9 (n=8) received two drops of saline and served as the control. All concentrations of ascorbic acid were titrated with saline.
The presence of new vessels (neovascularization) and the extent of new vessel formation was assessed by slit lamp photography and in some embodiments, by histology. Inhibition of vessel proliferation was evaluated by measuring vessel progression from the outer cornea (corneal limbus) into the cornea. As previously described, it will be appreciated that any reduction of new vessel proliferation and/or regression of existing vessels is therapeutic, and that complete inhibition and/or regression is not required, and also that reduction includes regression of existing vessels.
All animals were anesthetized as described above and their corneas evaluated by slit-lamp microscopy on the third and sixth days. Corneal photographs were taken with ×25 magnification using a camera attached to the slit-lamp microscope (Topcon SL-7E, Tokyo Japan) on the seventh day. Neovascularization was evaluated by an examiner who was blinded as to the treatment groups to minimize the observer bias.
Corneal neovascularization was assessed by scanning (Cano scan 9900F, Canon, Tokyo Japan) the slit lamp photographs into high resolution digital images. The corneal surface covered with neovascular vessels was measured on the photographs as the percentage of the total area of the cornea. The percentage area of corneal neovascularization was determined by outlining the areas with corneal vessels and comparing these to the total corneal surface using image j software (Wayne Rasband at the Research Services Branch,-National Institute of Mental Health, Bethesda Md.). The area of neovascularization was measured in terms of pixels and its ratio to the entire corneal area was determined as the percentage of corneal neovascularization. The extent of the scar was also evaluated by calculating the percentage of the corneal surface that was covered by the scar. A drawing of corneal blood vessels was made to compare with digital photos and ensure that no vascular area was omitted during calculation of percent area. […]

[2] = electroretinogram (ERG) after ascorbic acid administration; assay type: in vivo, Rats
Procedure: The effect of pH neutralized and non-neutralized ascorbic acid administered topically to eyes at various concentrations was determined. Rats were subject to induced corneal neovascularization as previously described and administered pH neutralized and non-neutralized ascorbic acid and saline (control) at the same concentrations as previously described. An electroretinogram (ERG) was performed to evaluate the eye's electrical responses to a flash of light using an electrode placed on the surface of the eye (e.g., cornea) as known to one skilled in the art.

[3] = 100 mg/ml, mean ± standard deviation, n = 8
[4] = 100 mg/ml, listed as pH neutralized ascorbic acid

## O=C1O[C@H]([C@@H](O)CO)C(O)=C1O [Ascorbic Acid Non pH Neutralized, ascorbic acid, reference compound]
[1]; 100 mg (100 mg/ml)
  Degree of Corneal Neovascularization, OD: 10% and 25% and 20% and 0%
  Degree of Corneal Neovascularization, OS: 33% and 30% and 22% and 0%
[1]; 100 mg/ml
  mean inhibition of neovascularization: about 81%
[1]; [3]
  mean percent of neovascularization relative to total corneal area: AVE = 17.5 ± 12.8% (n = 8)
[1]; 100 mg/ml, mean ± standard deviation, n = 8, listed as ascorbic acid non-pH neutralized
  mean percent of neovascularization relative to total corneal area: about 19%
[1]; 100 mg/ml, mean ± standard deviation, n = 8, listed as non-neutralized ascorbic acid
  mean percent of neovascularization relative to total corneal area: 17.5%
[1]; 100 mg/ml, listed as non-neutralized ascorbic acid
  mean inhibition of neovascularization: 82.5%
[2]; 1 mg/ml, n=6
  decrease in ERG: no significant decrease in ERG
[2]; 10 mg/ml, n=6
  decrease in ERG: no significant decrease in ERG
[2]; 100 mg/ml, two eyes, listed as non-pH neutralized ascorbic acid
  decrease in ERG: 60% and 70%
[2]; 100 mg/ml, listed as non-pH neutralized ascorbic acid
  ocular findings (retinal detachment, cataracts, vitreous haze, retinal edema): partial retinal detachment

## O=C1O[C@H]([C@@H](O)CO)C(O)=C1O [Ascorbic Acid pH Neutralized, ascorbic acid]
[1]; 250 μg (250 μg/ml)
  Degree of Corneal Neovascularization, OD: 68% and 69% and 70% and 61%
  Degree of Corneal Neovascularization, OS: 65% and 63% and 66% and 48%
[1]; 250 μg/ml
  mean inhibition of neovascularization: about 33%
[1]; 250 μg/ml, FIG. 2
  mean percent of neovascularization relative to total corneal area: about 67%
[1]; 250 μg/ml, listed as neutralized ascorbic acid
  mean inhibition of neovascularization: differences were not significant
[1]; 500 μg (500 μg/ml)
  Degree of Corneal Neovascularization, OD: 54% and 69% and 70% and 61%
  Degree of Corneal Neovascularization, OS: 50% and 63% and 66% and 48%
[1]; 500 μg/ml
  mean inhibition of neovascularization: about 40%
[1]; 500 μg/ml, mean ± standard deviation, n = 8
  mean percent of neovascularization relative to total corneal area: mean = 60.1 ± 8.5% (n = 8)
[1]; 500 μg/ml, mean ± standard deviation, n = 8, listed as ascorbic acid pH neutralized
  mean percent of neovascularization relative to total corneal area: about 60%
[1]; 500 μg/ml, mean ± standard deviation, n = 8, listed as neutralized ascorbic acid
  mean percent of neovascularization relative to total corneal area: 60.1%
[1]; 500 μg/ml, listed as neutralized ascorbic acid
  mean inhibition of neovascularization: 39.9%
[1]; 1 mg (1 mg/ml)
  Degree of Corneal Neovascularization, OD: 49% and 15% and 48% and 5%
  Degree of Corneal Neovascularization, OS: 47% and 27% and 29% and 17%
[1]; 1 mg/ml
  mean inhibition of neovascularization: about 69%
[1]; 1 mg/ml, mean ± standard deviation
  mean percent of neovascularization relative to total corneal area: mean = 29.6 ± 16.9%
[1]; 1 mg/ml, mean ± standard deviation, listed as ascorbic acid pH neutralized
  mean percent of neovascularization relative to total corneal area: about 31%
[1]; 1 mg/ml, listed as neutralized ascorbic acid
  mean inhibition of neovascularization: significant inhibition compared to control eyes
[1]; 5 mg (5 mg/ml)
  Degree of Corneal Neovascularization, OD: 20% and 35% and 0% and 60%
  Degree of Corneal Neovascularization, OS: 60% and 26% and 30% and 0%
[1]; 5 mg/ml
  mean inhibition of neovascularization: about 70%
[1]; 5 mg/ml, mean ± standard deviation, n = 8
  mean percent of neovascularization relative to total corneal area: mean = 28.9 ± 23.1% (n = 8)
[1]; 5 mg/ml, mean ± standard deviation, n = 8, listed as ascorbic acid pH neutralized
  mean percent of neovascularization relative to total corneal area: about 30%
[1]; 5 mg/ml, listed as neutralized ascorbic acid
  mean inhibition of neovascularization: significant inhibition compared to control eyes
[1]; 10 mg (10 mg/ml)
  Degree of Corneal Neovascularization, OD: 0% and 31% and 20% and 22%
  Degree of Corneal Neovascularization, OS: 0% and 27% and 15% and 26%
[1]; 10 mg/ml
  mean inhibition of neovascularization: about 81%
[1]; 10 mg/ml, mean ± standard deviation, n = 8
  mean percent of neovascularization relative to total corneal area: mean = 17.6 ± 11.9% (n = 8)
[1]; 10 mg/ml, mean ± standard deviation, n = 8, listed as ascorbic acid pH neutralized
  mean percent of neovascularization relative to total corneal area: about 19%
[1]; 10 mg/ml, listed as neutralized ascorbic acid
  mean inhibition of neovascularization: significant inhibition compared to control eyes
[1]; 50 mg (50 mg/ml)
  Degree of Corneal Neovascularization, OD: 10% and 15% and 32% and 3%
  Degree of Corneal Neovascularization, OS: 5% and 35% and 22% and 0%
[1]; 50 mg/ml
  mean inhibition of neovascularization: about 83.5%
[1]; 50 mg/ml, mean ± standard deviation, n = 8
  mean percent of neovascularization relative to total corneal area: mean = 15.2 ± 13.3% (n = 8)
[1]; 50 mg/ml, mean ± standard deviation, n = 8, listed as ascorbic acid pH neutralized
  mean percent of neovascularization relative to total corneal area: about 16.5%
[1]; 50 mg/ml, listed as neutralized ascorbic acid
  mean inhibition of neovascularization: significant inhibition compared to control eyes
[1]; 100 mg (100 mg/ml)
  Degree of Corneal Neovascularization, OD: 0% and 31% and 15% and 28%
  Degree of Corneal Neovascularization, OS: 54% and 5% and 3% and 0%
[1]; 100 mg/ml
  mean inhibition of neovascularization: about 82%
[1]; [3]
  mean percent of neovascularization relative to total corneal area: AVE = 17.0 ± 19.3% (n = 8)
[1]; 100 mg/ml, mean ± standard deviation, n = 8, listed as ascorbic acid pH neutralized
  mean percent of neovascularization relative to total corneal area: about 18%
[1]; 100 mg/ml, mean ± standard deviation, n = 8, listed as pH neutralized ascorbic acid
  mean percent of neovascularization relative to total corneal area: 17.0%
[1]; [4]
  mean inhibition of neovascularization: 83.0%
[1]; concentrations ranging from 100 mg/ml to 500 μg/ml
  inhibition of corneal neovascularization: significantly inhibited corneal neovascularization
[2]; 1 mg/ml, n=6
  decrease in ERG: no significant decrease in ERG
[2]; 10 mg/ml, n=6
  decrease in ERG: no significant decrease in ERG
[2]; 100 mg/ml, two eyes, listed as pH neutralized ascorbic acid
  decrease in ERG: 100%
[2]; [4]
  ocular findings (retinal detachment, cataracts, vitreous haze, retinal edema): neither cataracts nor retinal detachment; also recorded: vitreous haze and retinal edema
